Results on 38 compounds are retold here after PMC3617406 (Molecular pharmaceutics, 2013).

One assay has as its target T1, human NTCP (Homo sapiens, UniProt Q14973).
T1 sequence (Q14973 1-349): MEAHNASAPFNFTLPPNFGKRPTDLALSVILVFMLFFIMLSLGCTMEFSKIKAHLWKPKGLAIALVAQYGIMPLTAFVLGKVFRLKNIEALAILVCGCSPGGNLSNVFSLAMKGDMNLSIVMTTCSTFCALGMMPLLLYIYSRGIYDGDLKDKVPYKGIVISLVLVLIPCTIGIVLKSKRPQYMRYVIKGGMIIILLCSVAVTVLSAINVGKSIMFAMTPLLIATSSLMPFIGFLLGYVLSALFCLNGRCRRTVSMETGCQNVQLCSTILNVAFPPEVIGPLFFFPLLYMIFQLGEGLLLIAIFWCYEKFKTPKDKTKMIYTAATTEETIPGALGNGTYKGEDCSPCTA
The format is cell-based. To be noted: for potency estimated from few doses: read-out: Estimated Ki for NTCP; for NTCP inhibitor or non-inhibitor: inhibitor = Ki less than 300 μM.

A further assay deals with T2, human ASBT (Homo sapiens, UniProt Q12908).
T2 sequence (Q12908 1-348): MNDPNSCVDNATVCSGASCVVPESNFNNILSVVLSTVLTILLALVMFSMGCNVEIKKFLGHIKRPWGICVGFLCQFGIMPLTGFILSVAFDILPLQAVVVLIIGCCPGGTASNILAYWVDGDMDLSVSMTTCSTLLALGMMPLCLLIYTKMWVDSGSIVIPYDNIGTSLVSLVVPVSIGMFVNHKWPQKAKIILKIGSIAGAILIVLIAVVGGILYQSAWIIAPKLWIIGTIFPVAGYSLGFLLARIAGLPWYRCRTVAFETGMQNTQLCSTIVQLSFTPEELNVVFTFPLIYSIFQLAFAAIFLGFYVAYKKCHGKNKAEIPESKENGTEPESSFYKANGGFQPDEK
The format is cell-based. To be noted: for potency estimated from few doses: read-out: Estimated Ki for ASBT; for fold more potent ASBT inhibition than NTCP inhibition: Ki values of Table 4 and 5; for taurocholate uptake into ASBT-MDCK cells, percent of control: single drug concentration, same as in NTCP screening (typically 100 μM); for ASBT inhibitor or non-inhibitor: inhibitor = Ki below 300 μM.

The structures appear in SMILES notation. Where a name gives a salt, the structure may show the parent alone. Bounds are passed on as bounds.

In the case of `Nc1nc(NC2CC2)c2ncn([C@H]3C=C[C@@H](CO)C3)c2n1` [Abacavir], the potency estimated from few doses at human NTCP is 1290 µM; at human ASBT, 1460 µM.
Taken in the same sequence, the figures for `C[C@H]1O[C@H](O[C@H]2[C@H](O)[C@@H](O)[C@@H](O[C@H]3[C@H](O)[C@@H](O)C(O)O[C@@H]3CO)O[C@@H]2CO)[C@H](O)[C@@H](O)[C@@H]1N[C@H]1C=C(CO)[C@@H](O)[C@H](O)[C@H]1O` (stereo partly drawn) [Acarbose] were over 100 µM and 318 ± 169 µM.
The like results for `C[C@H]1[C@H](NC(=O)/C(=N\OC(C)(C)C(=O)O)c2csc(N)n2)C(=O)N1S(=O)(=O)O` [Aztreonam] were, in that order, over 100 µM and 1420 µM.
For `NS(=O)(=O)c1cc2c(cc1C(F)(F)F)NC(Cc1ccccc1)NS2(=O)=O` (stereo not drawn) [Bendroflumethiazide], the potency estimated from few doses on human ASBT was 168 ± 10 µM.
For `CC(C)C[C@H](NC(=O)[C@H](Cc1ccccc1)NC(=O)c1cnccn1)B(O)O` [Bortezomib], the potency estimated from few doses at human NTCP was over 100 µM; on human ASBT, 811 ± 243 µM.
Taken in the same sequence, the figures for `N[C@@H](C(=O)N[C@@H]1C(=O)N2C(C(=O)O)=C(Cl)CS[C@H]12)c1ccccc1` [Cefaclor] were over 100 µM and 1890 ± 257 µM.
As for `COCc1c(C(C)C)nc(C(C)C)c(/C=C/[C@@H](O)C[C@@H](O)CC(=O)O)c1-c1ccc(F)cc1` [Cerivastatin], the “NTCP inhibitor or non-inhibitor” value at human NTCP is on record as “NTCP inhibitors”.
As to `CCN(CC)CCCC(C)Nc1ccnc2cc(Cl)ccc12` (stereo not drawn) [Chloroquine], the potency estimated from few doses on human NTCP was 336 ± 101 µM.
For the compound `CN(C)CCCN1c2ccccc2Sc2ccc(Cl)cc21` [Chlorpromazine], at human NTCP, the potency estimated from few doses is 767 ± 268 µM. Also, on human ASBT, the “fold more potent ASBT inhibition than NTCP inhibition” value is on record as at least 10 fold; the potency estimated from few doses was 50.7 ± 5.9 µM; the “taurocholate uptake into ASBT-MDCK cells, percent of control” value is “below 50%”.
As to `CN/C(=N/CCSCc1nc[nH]c1C)NC#N` [Cimetidine], the potency estimated from few doses is 332 ± 73 µM at human NTCP and 208 ± 51 µM at human ASBT.
Taken in the same sequence, the figures for `COc1cccc2c1C(=O)c1c(O)c3c(c(O)c1C2=O)C[C@@](O)(C(C)=O)C[C@@H]3O[C@H]1C[C@H](N)[C@H](O)[C@H](C)O1` [Daunorubicin] were over 100 µM and over 100 µM.
Turning to `CCCCOc1cc(C(=O)NCCN(CC)CC)c2ccccc2n1` [Dibucaine], the potency estimated from few doses on human NTCP is over 100 µM; at human ASBT it was 85.8 ± 2.3 µM. For the same compound, the “fold more potent ASBT inhibition than NTCP inhibition” value on human ASBT is at least 10 fold.
`Clc1ccc(COC(Cn2ccnc2)c2ccc(Cl)cc2Cl)cc1` (stereo not drawn) [Econazole]: the potency estimated from few doses at human NTCP was 416 ± 624 µM. Also, at human ASBT, the “fold more potent ASBT inhibition than NTCP inhibition” value was at least 10 fold; the “ASBT inhibitor or non-inhibitor” value is “ASBT inhibitors”; the potency estimated from few doses was 18.5 ± 3.9 µM; the “taurocholate uptake into ASBT-MDCK cells, percent of control” value was “below 50%”.
As for `CN1CCC[C@@H]1Cc1c[nH]c2ccc(CCS(=O)(=O)c3ccccc3)cc12` [Eletriptan], at human NTCP, the potency estimated from few doses is over 100 µM. Besides, at human ASBT, the “fold more potent ASBT inhibition than NTCP inhibition” value is on record as at least 10 fold and the potency estimated from few doses is 137 ± 48 µM.
Taken in the same sequence, the figures for `CCOC(=O)[C@H](CCc1ccccc1)N[C@@H](C)C(=O)N1CCC[C@H]1C(=O)O` [Enalapril] were over 100 µM, at least 10 fold and 162 ± 82 µM.
`CCCCc1ncc(/C=C(\Cc2cccs2)C(=O)O)n1Cc1ccc(C(=O)O)cc1` [Eprosartan]: the “NTCP inhibitor or non-inhibitor” value at human NTCP is recorded as “did not inhibit NTCP”. Moreover, the potency estimated from few doses on human NTCP is over 100 µM; on human ASBT, 246 ± 119 µM.
For `CCC1(C)CC(=O)NC1=O` (stereo not drawn) [Ethosuximide], the potency estimated from few doses on human NTCP is 513 ± 169 µM; at human ASBT it was 313 ± 53 µM.
With `O=C1[C@H](CC[C@H](O)c2ccc(F)cc2)[C@@H](c2ccc(O)cc2)N1c1ccc(F)cc1` [Ezetimibe], on human NTCP, the “NTCP inhibitor or non-inhibitor” value is listed as “NTCP inhibitors” and the potency estimated from few doses was 53.8 ± 3.3 µM. At human ASBT, the potency estimated from few doses was 4.61 ± 0.88 µM and the “taurocholate uptake into ASBT-MDCK cells, percent of control” value is “below 50%”.
As for `NC(N)=Nc1nc(CSCCC(N)=NS(N)(=O)=O)cs1` [Famotidine], the potency estimated from few doses at human NTCP is 387 ± 130 µM; at human ASBT, 2280 ± 978 µM.
The like results for `COc1ccc(CC(C)NCC(O)c2ccc(O)c(NC=O)c2)cc1` (stereo not drawn) [Formoterol] were, in that order, over 100 µM and 175 ± 96 µM.
Consider `NS(=O)(=O)c1cc(C(=O)O)c(NCc2ccco2)cc1Cl` [Furosemide], for which the values for the potency estimated from few doses at human NTCP and at human ASBT were 304 ± 132 µM and over 100 µM, respectively.
Taken in the same sequence, the figures for `Cc1ccc(NC(=O)c2ccc(CN3CCN(C)CC3)cc2)cc1Nc1nccc(-c2cccnc2)n1` [Imatinib] were 673 ± 130 µM and 177 ± 32 µM.
With `CCCCC1=NC2(CCCC2)C(=O)N1Cc1ccc(-c2ccccc2-c2nnn[nH]2)cc1` [Irbesartan], at human NTCP, the “NTCP inhibitor or non-inhibitor” value is listed as “inhibited NTCP”. In addition, the potency estimated from few doses at human ASBT is 131 ± 34 µM.
On to `COC(=O)C1=C(C)NC(C)=C(C(=O)OC(C)C)C1c1cccc2nonc12` (stereo not drawn) [Isradipine], for which, at human NTCP, the “NTCP inhibitor or non-inhibitor” value is given as “NTCP inhibitors” and the potency estimated from few doses was 99.5 ± 14 µM. For the same compound, on human ASBT, the potency estimated from few doses was 17.9 ± 2.3 µM and the “taurocholate uptake into ASBT-MDCK cells, percent of control” value is “below 50%”.
As to `CCC(C)n1ncn(-c2ccc(N3CCN(c4ccc(OCC5COC(Cn6cncn6)(c6ccc(Cl)cc6Cl)O5)cc4)CC3)cc2)c1=O` (stereo not drawn) [Itraconazole], at human NTCP, the “NTCP inhibitor or non-inhibitor” value is recorded as “NTCP inhibitors” and the potency estimated from few doses is 77.1 ± 38 µM. In addition, on human ASBT, the “ASBT inhibitor or non-inhibitor” value was “ASBT inhibitors” and the potency estimated from few doses is 57 ± 25 µM.
As for `CCCCc1nc(Cl)c(CO)n1Cc1ccc(-c2ccccc2-c2nn[nH]n2)cc1` [Losartan], at human ASBT, the potency estimated from few doses is 139 ± 58 µM.
Regarding `CC[C@H](C)C(=O)O[C@H]1C[C@@H](C)C=C2C=C[C@H](C)[C@H](CC[C@@H]3C[C@@H](O)CC(=O)O3)[C@H]21` [Lovastatin], at human NTCP, the “NTCP inhibitor or non-inhibitor” value was “NTCP inhibitors” and the potency estimated from few doses was 202 ± 32 µM. Besides, at human ASBT, the potency estimated from few doses was 21.7 ± 2.1 µM and the “taurocholate uptake into ASBT-MDCK cells, percent of control” value was “below 50%”.
Turning to `Cc1ncc([N+](=O)[O-])n1CCO` [Metronidazole], the potency estimated from few doses on human NTCP is 369 ± 83 µM; at human ASBT, 223 ± 90 µM. The “ASBT inhibitor or non-inhibitor” value at human ASBT is reported as “ASBT inhibitors”.
The like results for `Clc1ccc(COC(Cn2ccnc2)c2ccc(Cl)cc2Cl)c(Cl)c1` (stereo not drawn) [Miconazole] were, in that order, 601 ± 300 µM, 61.3 ± 16 µM and “ASBT inhibitors”.
With `CCOc1ccc2ccccc2c1C(=O)N[C@@H]1C(=O)N2[C@@H]1SC(C)(C)[C@@H]2C(=O)O` [Nafcillin], the potency estimated from few doses at human NTCP was 2010 ± 5840 µM; at human ASBT, over 100 µM.
For `COc1ccc2cc([C@H](C)C(=O)O)ccc2c1` [Naproxen], at human NTCP, the “NTCP inhibitor or non-inhibitor” value is listed as “inhibited NTCP” and the potency estimated from few doses was 217 ± 69 µM. Also, at human ASBT, the potency estimated from few doses was 136 ± 13 µM.
As to `COCCOC(=O)C1=C(C)NC(C)=C(C(=O)OC(C)C)C1c1cccc([N+](=O)[O-])c1` (stereo not drawn) [Nimodipine], at human ASBT, the potency estimated from few doses was 30.9 ± 1.7 µM and the “taurocholate uptake into ASBT-MDCK cells, percent of control” value is listed as “below 50%”.
As to `CCOC(=O)C1=C(C)NC(C)=C(C(=O)OC)C1c1cccc([N+](=O)[O-])c1` (stereo not drawn) [Nitrendipine], on human ASBT, the potency estimated from few doses was 31.7 ± 6.5 µM.
Regarding `CCCc1nc(C(C)(C)O)c(C(=O)O)n1Cc1ccc(-c2ccccc2-c2nnn[nH]2)cc1` [Olmesartan], on human ASBT, the “ASBT inhibitor or non-inhibitor” value is on record as “inhibited NTCP but not ASBT” and the potency estimated from few doses was 1050 ± 422 µM.
As to `O=C(c1ccc(OCCN2CCCCC2)cc1)c1c(-c2ccc(O)cc2)sc2cc(O)ccc12` [Raloxifene HCl], the potency estimated from few doses on human ASBT is 65.8 ± 9.2 µM.
In the case of `CC(C)c1nc(CN(C)C(=O)N[C@H](C(=O)N[C@@H](Cc2ccccc2)C[C@H](O)[C@H](Cc2ccccc2)NC(=O)OCc2cncs2)C(C)C)cs1` [Ritonavir], on human ASBT, the potency estimated from few doses is 47.3 ± 9.7 µM and the “taurocholate uptake into ASBT-MDCK cells, percent of control” value is on record as “below 50%”.
With `CC(C)c1nc(N(C)S(C)(=O)=O)nc(-c2ccc(F)cc2)c1/C=C/[C@@H](O)C[C@@H](O)CC(=O)O` [Rosuvastatin], the potency estimated from few doses at human ASBT is 164 ± 34 µM.
Take `Clc1ccc(C(Cn2ccnc2)OCc2ccsc2Cl)c(Cl)c1` (stereo not drawn) [Tioconazole]: on human ASBT, the “ASBT inhibitor or non-inhibitor” value is recorded as “ASBT inhibitors”; the potency estimated from few doses was 11.9 ± 2.7 µM; the “taurocholate uptake into ASBT-MDCK cells, percent of control” value is recorded as “below 50%”.
